This note sets out measurements from patent publication US12187709B2 (Genentech, Inc., priority 2021, dated 2025).

Each structure is given as a SMILES string.

One assay concerns the target Cbl-b (Homo sapiens (Human), UniProt Q13191). The experiment in a line: Cbl-b LCK Ub TR-FRET assay (Cbl-b Lck HTRF). Type of assay: biochemical. As to conditions: for IC50: Cbl-b LCK Ub TR-FRET; for fold-selectivity (Cbl-b over C-cbl): ratio C-cbl Lck HTRF IC50 / Cbl-b Lck HTRF IC50. The method, boiled down:
(§1)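 Detection reagents added, brief spin, 20 min RT. IC50 fit normalized to no-LCK (low) and DMSO (high) controls.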
(In general: Time-resolved FRET reads energy transfer from a long-lived donor to a nearby acceptor.)

In assay [1] the target is Human Cbl-b (residues 40-426) (Homo sapiens (Human), UniProt Q13191). The experiment in a line: Cbl-b SPR assay. Type of assay: binding. As to conditions: for Fold of selectivity: C-cbl SPR Kd vs Cbl-b SPR Kd; for Kd: SPR, 20° C. The procedure, abridged: (§2)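 Values derive from a 1:1 model fitted to multicycle kinetics on captured protein (1300-1500 RU), using six 2-fold concentrations, 60 s contact and dissociation of 120-1200 s. In the chaser format, kd comes from a single-exponential fit of % site occupancy over time.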
Sequence of Human Cbl-b (residues 40-426) (Q13191 40-426): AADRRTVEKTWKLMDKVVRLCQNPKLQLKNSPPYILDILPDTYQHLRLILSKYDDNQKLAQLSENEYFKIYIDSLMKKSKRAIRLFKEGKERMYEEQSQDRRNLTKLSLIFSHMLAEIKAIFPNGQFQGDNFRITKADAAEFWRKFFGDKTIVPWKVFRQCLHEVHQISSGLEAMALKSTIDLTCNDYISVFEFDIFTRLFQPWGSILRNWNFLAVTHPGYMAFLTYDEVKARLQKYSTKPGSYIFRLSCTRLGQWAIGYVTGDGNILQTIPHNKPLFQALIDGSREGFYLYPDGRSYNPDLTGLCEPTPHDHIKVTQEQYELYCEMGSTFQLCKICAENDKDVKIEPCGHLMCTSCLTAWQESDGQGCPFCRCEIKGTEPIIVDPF

The target in another assay is c-Cbl (Homo sapiens (Human), UniProt P22681). Briefly: C-Cbl LCK Ub TR-FRET assay (C-cbl Lck HTRF). Type of assay: biochemical. The procedure, abridged:
as §1

A further assay addresses c-Cbl (residues 47-435) (Homo sapiens (Human), UniProt P22681). The experiment in a line: c-Cbl SPR assay. As to conditions: 20° C. Type of assay: binding. The procedure, abridged:
as §2
On the technique in general: Surface plasmon resonance follows binding to a sensor surface in real time, without labels.

Sequence of c-Cbl (residues 47-435) (P22681 47-435): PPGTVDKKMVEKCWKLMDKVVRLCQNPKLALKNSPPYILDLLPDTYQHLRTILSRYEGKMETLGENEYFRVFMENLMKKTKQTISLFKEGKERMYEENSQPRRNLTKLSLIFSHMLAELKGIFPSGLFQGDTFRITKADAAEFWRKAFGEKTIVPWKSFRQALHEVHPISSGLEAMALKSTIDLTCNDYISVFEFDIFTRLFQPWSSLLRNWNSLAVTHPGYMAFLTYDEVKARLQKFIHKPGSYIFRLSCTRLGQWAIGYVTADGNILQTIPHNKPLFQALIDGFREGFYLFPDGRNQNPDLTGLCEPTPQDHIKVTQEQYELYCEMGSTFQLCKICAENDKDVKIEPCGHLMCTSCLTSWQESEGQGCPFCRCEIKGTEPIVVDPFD
Sequence of c-Cbl (P22681 47-435): as above
Sequence of Cbl-b (Q13191 40-426): as the sequence (Q13191 40-426) above

As for `Cn1cnnc1[C@]1(c2cccc(N3Cc4c(cc(CNC5(C)CCC5)cc4C(F)(F)F)C3=O)c2)C[C@H](OCC#N)C1` [Compound 280, 2-((1s,3s)-3-(4-methyl-4H-1,2,4-triazol-3-yl)-3-(3-(6-(((1-methylcyclobutyl)amino)methyl)-1-oxo-4-(trifluoromethyl)isoindolin-2-yl)phenyl)cyclobutoxy)acetonitrile], at Cbl-b, it took 0.0068 µM to reach half-maximal inhibition (IC50) and the “fold-selectivity (Cbl-b over C-cbl)” value worked out at 1.6x. In assay [1], this molecule displayed a Fold of selectivity of 7.0× and a Kd of 0.0011 µM. The same molecule yielded an IC50 at c-Cbl of 0.011 µM. Besides, binding at c-Cbl (residues 47-435) was put at a Kd of 0.0072 µM.

`Cn1cnnc1[C@]1(c2cccc(N3Cc4c(cc(CNC5(C)CCC5)cc4C(F)(F)F)C3=O)c2)C[C@@H](OCC#N)C1` [Compound 281, 2-((1r,3r)-3-(4-methyl-4H-1,2,4-triazol-3-yl)-3-(3-(6-(((1-methylcyclobutyl)amino)methyl)-1-oxo-4-(trifluoromethyl)isoindolin-2-yl)phenyl)cyclobutoxy)acetontrile]: on Cbl-b, the 50% inhibitory concentration (IC50) was determined as 0.0067 µM and the “fold-selectivity (Cbl-b over C-cbl)” value was determined as 1.3x. In assay [1], this molecule returned a Fold of selectivity of 6.3× and a Kd of 0.0011 µM. Also, at c-Cbl, 0.0095 µM corresponded to half-maximal inhibition (IC50). On c-Cbl (residues 47-435), this molecule registered a Kd of 0.007 µM.

On to `Cn1cnnc1C1(c2cccc(N3Cc4c(cc(CNC5(C)CCC5)cc4C(F)(F)F)C3=O)c2)CCOCC1` [Compound 282, 2-(3-(4-(4-methyl-4H-1,2,4-triazol-3-yl)tetrahydro-2H-pyran-4-yl)phenyl)-6-(((1-methylcyclobutyl)amino)methyl)-4-(trifluoromethyl)isoindolin-1-one], for which, on Cbl-b, the IC50 worked out at 0.41 µM and the “fold-selectivity (Cbl-b over C-cbl)” value came out at 6.5x. In assay [1], this molecule came in with a Fold of selectivity of 10× and a Kd of 0.23 µM. Besides, at c-Cbl, the IC50 was determined as 2.8 µM. Besides, the Kd on c-Cbl (residues 47-435) was 2.3 µM.

In the case of `Cn1cnnc1C1(c2cccc(N3Cc4c(cc(CNC5(C)CCC5)cc4C(F)(F)F)C3=O)c2)CC1` [Compound 283, 2-(3-(1-(4-methyl-4H-1,2,4-triazol-3-yl)cyclopropyl)phenyl)-6-(((1-methylcyclobutyl)amino)methyl)-4-(trifluoromethyl)isoindolin-1-one], at Cbl-b, the IC50 turned out to be 0.081 µM and the “fold-selectivity (Cbl-b over C-cbl)” value came to 2.7x. Also, in assay [1], the Fold of selectivity stood at 5.3× and binding was characterised by a dissociation constant (Kd) of 0.043 µM. Besides, the concentration for half-maximal inhibition (IC50) at c-Cbl is 0.22 µM. The molecule further came in with a dissociation constant (Kd) on c-Cbl (residues 47-435) of 0.22 µM.

Consider `C[C@H](NC1(C)CCC1)c1cc2c(c(C(F)(F)F)c1)CN(c1cccc(C(c3nncn3C)C3COC3)c1)C2=O` (stereo partly drawn) [Compound 285], for which, on Cbl-b, the 50% inhibitory concentration (IC50) was determined as 0.006 µM and the “fold-selectivity (Cbl-b over C-cbl)” value turned out to be 1.1x. In assay [1], the Fold of selectivity came out at 1.1× and the Kd is 0.0007 µM. Besides, at c-Cbl, 0.0065 µM corresponded to half-maximal inhibition (IC50). This molecule also displayed a Kd on c-Cbl (residues 47-435) of 0.0008 µM.

Regarding `Cn1cnnc1C1(c2cccc(N3Cc4c(cc(CNC5(C)CCC5)cc4C(F)(F)F)C3=O)c2)CCCC1` [Compound 292, 2-(3-(1-(4-methyl-4H-1,2,4-triazol-3-yl)cyclopentyl)phenyl)-6-(((1-methylcyclobutyl)amino)methyl)-4-(trifluoromethyl)isoindolin-1-one], on Cbl-b, the IC50 worked out at 0.0098 µM and the “fold-selectivity (Cbl-b over C-cbl)” value turned out to be 2.4x. In assay [1], this molecule had a Fold of selectivity of 6.3× and an equilibrium dissociation constant (Kd) of 0.005 µM. Further, at c-Cbl, it took 0.023 µM to reach half-maximal inhibition (IC50). In addition, binding on c-Cbl (residues 47-435) was put at a Kd of 0.031 µM.

`Cn1cnnc1C1(c2cccc(N3Cc4c(cc(CNC5(C)CCC5)cc4C(F)(F)F)C3=O)c2)CC2(C1)OCCO2` [Compound 293, 2-(3-(2-(4-methyl-4H-1,2,4-triazol-3-yl)-5,8-dioxaspiro[3.4]octan-2-yl)phenyl)-6-(((1-methylcyclobutyl)amino)methyl)-4-(trifluoromethyl)isoindolin-1-one]: at Cbl-b, the midpoint of inhibition, the IC50, lay at 0.064 µM and the “fold-selectivity (Cbl-b over C-cbl)” value is given as 3.0x. In assay [1], this molecule had a Fold of selectivity of 4.0× and a dissociation constant Kd of 0.053 µM. For the same molecule, it took 0.19 µM to reach half-maximal inhibition at c-Cbl (IC50). On c-Cbl (residues 47-435), this molecule yielded a dissociation constant (Kd) of 0.2 µM.

By IC50 is commonly meant the concentration needed to halve the response being measured. Usually Kd stands for the constant that tells how readily two partners part at equilibrium. A higher Kd goes with lower affinity.
